Patent publication US11434242B2, “Dopamine-b-hydroxylase inhibitors” (BIAL-PORTELA & Cª, S.A., priority 2017, dated 2022)
Marks after values point to notes of the source that are not given here.

Molecular target: T1, Dopamine beta hydroxylase (Homo sapiens, UniProt P09172)
T1 construct: 125 μl of plasma; tissue Instituto Português do Sangue Transplantação; host or cells: human plasma from healthy donors
T1 sequence (P09172 40-617 limits assumed): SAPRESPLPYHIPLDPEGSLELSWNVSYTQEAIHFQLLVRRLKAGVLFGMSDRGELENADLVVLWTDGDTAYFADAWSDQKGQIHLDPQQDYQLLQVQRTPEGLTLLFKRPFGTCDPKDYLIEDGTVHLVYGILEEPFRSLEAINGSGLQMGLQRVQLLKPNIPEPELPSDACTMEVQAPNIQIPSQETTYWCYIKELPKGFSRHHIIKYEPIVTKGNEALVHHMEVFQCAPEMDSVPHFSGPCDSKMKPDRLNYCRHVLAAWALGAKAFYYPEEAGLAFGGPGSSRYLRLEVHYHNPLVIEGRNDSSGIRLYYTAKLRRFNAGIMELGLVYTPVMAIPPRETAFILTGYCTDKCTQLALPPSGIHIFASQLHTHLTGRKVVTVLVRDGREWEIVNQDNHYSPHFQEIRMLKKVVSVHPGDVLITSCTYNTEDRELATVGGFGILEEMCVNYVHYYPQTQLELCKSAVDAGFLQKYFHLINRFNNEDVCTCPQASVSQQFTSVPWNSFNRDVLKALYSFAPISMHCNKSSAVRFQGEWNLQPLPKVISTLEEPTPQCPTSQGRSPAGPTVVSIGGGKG
Assay: Dopamine beta hydroxylase activity in human plasma
Assay type: biochemical
Details: for Plasma (0.01 μM), activity in % of control / Plasma (0.01 μM), activity in % of control, re-test (asterisked): inhibitor 0.01 μM; for Plasma (0.1 μM), activity in % of control / Plasma (0.1 μM), activity in % of control, re-test (asterisked): inhibitor 0.1 μM; for Plasma (0.01 μM), activity in % of control, re-test (asterisked) / Plasma (0.1 μM), activity in % of control, re-test (asterisked): re-tested under the same experimental conditions, asterisked data believed to be correct
Summary of the method: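 Healthy-donor human plasma pre-incubated 10 min at 37° C with compound at final 10, 100 or 1000 nM in pH 5.0 acetate buffer with ascorbate, fumarate, pargyline, N-ethylmaleimide, catalase and copper sulfate. Tyramine substrate then added for 45 min; octopamine formed was isolated by SCX cartridge, periodate-converted and read at 330 nm; activity given as % control.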

SMILES	Plasma (0.01 μM), activity in % of control	Plasma (0.1 μM), activity in % of control	Plasma (0.01 μM), activity in % of control, re-test (asterisked)	Plasma (0.1 μM), activity in % of control, re-test (asterisked)
Cn1c(CC(=O)N2CCNC(=O)C2)c2n(c1=S)C[C@@H](c1c(F)c(F)cc(F)c1F)C2 [Example 323, (R)-4-(2-(2-methyl-6-(2,3,5,6-tetrafluorophenyl)-3-thioxo-2,5,6,7-tetrahydro-3H-pyrrolo[1,2-c]imidazol-1-yl)acetyl)piperazin-2-one]	86.3 % of control	43.3 % of control	–	–
Cn1c(CC(=O)N2CCCO2)c2n(c1=S)C[C@H](c1c(F)ccc(Cl)c1F)C2 [Example 444, (S)-2-(6-(3-chloro-2,6-difluorophenyl)-2-methyl-3-thioxo-2,5,6,7-tetrahydro-3H-pyrrolo[1,2-c]imidazol-1-yl)-1-(isoxazolidin-2-yl)ethan-1-one]	73.5 % of control	57.7 % of control	–	–
Cn1c(CC(=O)N[C@@H]2CCCNC2=O)c2n(c1=S)C[C@@H](c1c(F)ccc(F)c1F)C2 [Example 354, 2-((R)-2-methyl-3-thioxo-6-(2,3,6-trifluorophenyl)-2,5,6,7-tetrahydro-3H-pyrrolo[1,2-c]imidazol-1-yl)-N—((R)-2-oxopiperidin-3-yl)acetamide]	106.2 % of control	53.4 % of control	–	–
Cn1c(CC(=O)N[C@H]2CCOC2)c2n(c1=S)C[C@@]1(c3c(F)ccc(Cl)c3F)C[C@@H]21 [Example 418, 2-((5aS,6aR)-5a-(3-chloro-2,6-difluorophenyl)-2-methyl-3-thioxo-2,3,5,5a,6,6a-hexahydrocyclopropa[3,4]pyrrolo[1,2-c]imidazol-1-yl)-N—((S)-tetrahydrofuran-3-yl)acetamide]	27.7 % of control	3.0 % of control	–	–
CN(Cc1cnn(C)c1)C(=O)Cc1c2n(c(=S)n1C)C[C@H](c1c(F)ccc(Cl)c1F)C2 [Example 430, (S)-2-(6-(3-chloro-2,6-difluorophenyl)-2-methyl-3-thioxo-2,5,6,7-tetrahydro-3H-pyrrolo[1,2-c]imidazol-1-yl)-N-methyl-N-((1-methyl-1H-pyrazol-4-yl)methyl)acetamide]	25.3 % of control	2.2 % of control	–	–
Cn1c(CC(=O)N2CCCCC2)c2n(c1=S)C[C@@]1(c3cc(Cl)ccc3F)C[C@@H]21 [Example 311, 2-((5aS,6aR)-5a-(5-chloro-2-fluorophenyl)-2-methyl-3-thioxo-2,3,5,5a,6,6a-hexahydrocyclopropa[3,4]pyrrolo[1,2-c]imidazol-1-yl)-1-(piperidin-1-yl)ethan-1-one]	87.2 % of control	21.6 % of control	–	–
Cl.Cn1c(CCNCc2ccccn2)c2n(c1=S)C[C@@]1(c3cc(Cl)ccc3F)C[C@@H]21 [Example 343, (5aS,6aR)-5a-(5-chloro-2-fluorophenyl)-2-methyl-1-(2-((pyridin-2-ylmethyl)amino)ethyl)-5,5a,6,6a-tetrahydrocyclopropa[3,4]pyrrolo[1,2-c]imidazole-3(2H)-thione Hydrochloride]	94.9 % of control	59.5 % of control	–	–
CN(C(=O)Cc1c2n(c(=S)n1C)C[C@@]1(c3cc(Cl)ccc3F)C[C@@H]21)C1CCOCC1 [Example 434, 2-((5aS,6aR)-5a-(5-chloro-2-fluorophenyl)-2-methyl-3-thioxo-2,3,5,5a,6,6a-hexahydrocyclopropa[3,4]pyrrolo[1,2-c]imidazol-1-yl)-N-methyl-N-(tetrahydro-2H-pyran-4-yl)acetamide]	52.5 % of control	8.5 % of control	–	–
Cn1c(CC(=O)NC2COC2)c2n(c1=S)C[C@H](c1c(F)ccc(Br)c1F)C2 [Example 413, (S)-2-(6-(3-bromo-2,6-difluorophenyl)-2-methyl-3-thioxo-2,5,6,7-tetrahydro-3H-pyrrolo[1,2-c]imidazol-1-yl)-N-(oxetan-3-yl)acetamide]	42.4 % of control	3.1 % of control	–	–
Cn1c(CC(=O)NC2CCCC2)c2n(c1=S)C[C@@H](c1cc(Cl)ccc1F)C2 [Example 245, (R)-2-(6-(5-chloro-2-fluorophenyl)-2-methyl-3-thioxo-2,5,6,7-tetrahydro-3H-pyrrolo[1,2-c]imidazol-1-yl)-N-cyclopentylacetamide]	107.8 % of control	93 % of control	–	–
Cn1c(CCN2CCCC2)c2n(c1=S)C[C@@H](c1c(F)ccc(F)c1F)C2 [Example 474, (R)-2-methyl-1-(2-(pyrrolidin-1-yl)ethyl)-6-(2,3,6-trifluorophenyl)-2,5,6,7-tetrahydro-3H-pyrrolo[1,2-c]imidazole-3-thione hydrofluoride]	92.5 % of control	79.3 % of control	–	–
Cn1c(CC(=O)Nc2nncs2)c2n(c1=S)C[C@H](c1c(F)ccc(Cl)c1F)C2 [Example 285, (S)-2-(6-(3-chloro-2,6-difluorophenyl)-2-methyl-3-thioxo-2,5,6,7-tetrahydro-3H-pyrrolo[1,2-c]imidazol-1-yl)-N-(1,3,4-thiadiazol-2-yl)acetamide]	55.8 % of control	22.2 % of control	–	–
CN(CCc1[nH]c(=S)n2c1C[C@@H](c1c(F)ccc(Cl)c1F)C2)C(=O)N1CCCC1 [Example 227, (S)—N-(2-(6-(3-chloro-2,6-difluorophenyl)-3-thioxo-2,5,6,7-tetrahydro-3H-pyrrolo[1,2-c]imidazol-1-yl)ethyl)-N-methylpyrrolidine-1-carboxamide]	86.8 % of control	54.9 % of control	–	–
Cn1c(CC(=O)NC2COC2)c2n(c1=S)C[C@@]1(c3cc(Cl)ccc3F)C[C@@H]21 [Example 433, 2-((5aS,6aR)-5a-(5-chloro-2-fluorophenyl)-2-methyl-3-thioxo-2,3,5,5a,6,6a-hexahydrocyclopropa[3,4]pyrrolo[1,2-c]imidazol-1-yl)-N-(oxetan-3-yl)acetamide]	56.9 % of control	9.2 % of control	–	–
Cn1c(CC(=O)NC2CCCC2)c2n(c1=S)C[C@@]1(c3cc(Cl)ccc3F)C[C@@H]21 [Example 273, 2-((5aS,6aR)-5a-(5-chloro-2-fluorophenyl)-2-methyl-3-thioxo-2,3,5,5a,6,6a-hexahydrocyclopropa[3,4]pyrrolo[1,2-c]imidazol-1-yl)-N-cyclopentylacetamide]	86.6 % of control	28.9 % of control	–	–
Cn1c(CC(=O)N2CCOCC2)c2n(c1=S)C[C@@]1(c3cc(Br)ccc3F)C[C@@H]21 [Example 436, 2-((5aS,6aR)-5a-(5-bromo-2-fluorophenyl)-2-methyl-3-thioxo-2,3,5,5a,6,6a-hexahydrocyclopropa[3,4]pyrrolo[1,2-c]imidazol-1-yl)-1-morpholinoethan-1-one]	73.6 % of control	23.9 % of control	–	–
O=C(CCc1[nH]c(=S)n2c1C[C@H](c1c(F)c(F)cc(F)c1F)C2)N1CCOCC1 [Example 205, (R)-1-morpholino-3-(6-(2,3,5,6-tetrafluorophenyl)-3-thioxo-2,5,6,7-tetrahydro-3H-pyrrolo[1,2-c]imidazol-1-yl)propan-1-one]	76.9 % of control	18.2 % of control	–	–
O=C(Cc1[nH]c(=S)n2c1C[C@H](c1c(F)c(F)cc(F)c1F)C2)N[C@H]1CCOC1 [Example 369, 2-((R)-6-(2,3,5,6-tetrafluorophenyl)-3-thioxo-2,5,6,7-tetrahydro-3H-pyrrolo[1,2-c]imidazol-1-yl)-N—((S)-tetrahydrofuran-3-yl)acetamide]	86.0 % of control	60.1 % of control	–	–
Cn1c(CC(=O)N[C@@H]2CCOC2)c2n(c1=S)C[C@@H](c1c(F)c(F)cc(F)c1F)C2 [Example 243]	38.0 % of control	4.4 % of control	87.3* % of control	37.6* % of control
Cn1c(CC(=O)NC2CCOCC2)c2n(c1=S)C[C@@]1(c3cc(Br)ccc3F)C[C@@H]21 [Example 314, 2-((5aS,6aR)-5a-(5-bromo-2-fluorophenyl)-2-methyl-3-thioxo-2,3,5,5a,6,6a-hexahydrocyclopropa[3,4]pyrrolo[1,2-c]imidazol-1-yl)-N-(tetrahydro-2H-pyran-4-yl)acetamide]	80.2 % of control	34.8 % of control	41.9* % of control	1.4* % of control
